Laboratory results published in US20020107302A1, “Monomeric dye inkjet printing ink formulations for invisible marking / identification” (priority 2000, published 2002).

Assay: Solubility or dispersibility of monomeric dye in vehicle systems
[1] = 50/50 acetone/water, 600 ppm dye
[2] = Methyl ethyl ketone, 600 ppm dye
[3] = Water with 1% ammonium hydroxide, 600 ppm dye
[4] = Water, 0.06% (by weight) or 600 ppm dye

| SMILES | Solubility or Dispersibility [1] | Solubility or Dispersibility (Acetone, 600 ppm dye) | Solubility or Dispersibility (Ethanol, 600 ppm dye) | Solubility or Dispersibility (Ethyl acetate, 600 ppm dye) | Solubility or Dispersibility (Methyl acetate, 600 ppm dye) | Solubility or Dispersibility [2] | Solubility or Dispersibility (Propylene glycol, 600 ppm dye) | Solubility or Dispersibility [3] | Solubility or Dispersibility [4] |
| --- | --- | --- | --- | --- | --- | --- | --- | --- | --- |
| COC(=O)c1cc([O][Al]2[n]3c4c5ccccc5c3/N=C3N=C(/N=c5/c6ccccc6/c([n]52)=N/C2=NC(=N\4)/c4ccccc42)c2ccccc2\3)cc(C(=O)OC)c1 [Dye II, Aluminum phthalocyanine(3,5-dicarbo-methoxyphenoxide)] | Partially Soluble | Partially Soluble | Soluble | Partially Soluble | Insoluble | Partially Soluble | Soluble | Insoluble | Insoluble |
| CCCCC(CC)COC(=O)c1ccc(Oc2cccc3c2-c2nc-3nc3[nH]c(nc4nc(nc5[nH]c(n2)c2cccc(Oc6ccc(C(=O)OCC(CC)CCCC)cc6)c52)-c2cccc(Oc5ccc(C(=O)OCC(CC)CCCC)cc5)c2-4)c2cccc(Oc4ccc(C(=O)OCC(CC)CCCC)cc4)c32)cc1 [Dye III, 1(4),8(11),15(18),22(2S)-tetraks((4-(2-ethylhexoxy)carbonyl)phenoxy)phthalocyanine] | Insoluble | Partially Soluble | Insoluble | Soluble | Soluble | Partially Soluble | Insoluble | Insoluble | Insoluble |
| CN1C(=CC=CC=CC=CC2=[N+](C)c3ccc4ccccc4c3C2(C)C)C(C)(C)c2c1ccc1ccccc21.[O-][Cl+3]([O-])([O-])[O-] [Dye IV, 1,1,3,3,3,3-Hexamethyl-4,4,5,5-dibenzo-2,2-indotricarbocyanine perchlorate] | Soluble | Soluble | Soluble | Soluble | Soluble | Soluble | Soluble | Insoluble | Insoluble |
| CCN1C(=CCC2CCC(C=CC3Sc4ccc(Cl)cc4N3CC)=C2N(c2ccccc2)c2ccccc2)Sc2ccc(Cl)cc21 (centres unmarked) [Dye V, 5,5-Dichloro-11-(diphenylamino)-3,3-diethyl-10,12-ethylenethiatri-carbocyanine perchlorate] | Soluble | Soluble | Soluble | Insoluble | Partially Soluble | Soluble | – | Insoluble | Insoluble |
